Source: paper PMC7413254 (Nature Communications, 2020)

Assays:
Type in all cases: cell-based
PfCRT^Ecu1110 [1] = molecular target: T1, PfCRT^Ecu1110 (Plasmodium falciparum, UniProt Q9N623, A220S/I356L/K76T/N326D); experiment: cell-based; settings: for PfCRT-mediated [3H]CQ transport, trans-stimulation (% PfCRTEcu1110 control): PfCRTEcu1110 oocytes, normalised to oocyte type control; for [3H]CQ transport (% PfCRTDd2 control), trans-stimulation, PfCRTEcu1110: PfCRT-mediated component (background subtracted), sheet title says normalised to PfCRTDd2 control, mean ± SEM, SEM
In short: (§1)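 Oocytes (ten per treatment, ≥4 independent frogs/days) were preloaded by injecting VF-6 in 25 nL ND96 at pH 5.0, 5.5, 6.0 or 7.0, or Na^+-free choline buffer, then uptake run 1.5 h, 27.5 °C, ND96 pH 5.5 by default. Internal concentrations assumed ~400 nL oocyte volume.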

PfCRT^3D7 = PfCRT^3D7 (Plasmodium falciparum, UniProt Q8IBZ9); experiment: cell-based; settings: for PfCRT-mediated [3H]CQ transport, trans-stimulation (% PfCRT3D7 control): PfCRT3D7 oocytes, normalised to oocyte type control
In short: as §1

PfCRT^Dd2 [2] = molecular target: T2, PfCRT^Dd2 (Plasmodium falciparum, UniProt Q9N623, A220S/I356T/K76T/M74I/N326S/N75E/Q271E/R371I); experiment: cell-based; settings: for PfCRT-mediated [3H]CQ transport, trans-stimulation (% PfCRTDd2 control): PfCRTDd2 oocytes, normalised to oocyte type control; for [3H]CQ transport (% PfCRTDd2 control), trans-stimulation, PfCRTDd2: PfCRT-mediated component (background subtracted), mean ± SEM, SEM
In short: as §1

PfCRT^Ecu1110 [3] = molecular target: T1, PfCRT^Ecu1110; experiment: [3H]CQ uptake into Xenopus oocytes, cis-inhibition by unlabelled solute; settings: for PfCRT-mediated [3H]CQ transport, cis-inhibition (% PfCRTEcu1110 control): PfCRTEcu1110 oocytes, background [3H]CQ accumulation subtracted, normalised to oocyte type control; for [3H]CQ transport (% PfCRTEcu1110 control), cis-inhibition, PfCRTEcu1110: PfCRT-mediated component (background subtracted), sheet title says normalised to PfCRTDd2 control, mean ± SEM, SEM
In short: (§2)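 Transport runs from the acidic bath into the cytosol, analogous to PfCRT-mediated efflux out of the vacuole. Non-expressing oocytes act as background.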

PfCRT^Dd2 [4] = molecular target: T2, PfCRT^Dd2; experiment: as above; settings: PfCRTDd2 oocytes, background [3H]CQ accumulation subtracted, normalised to oocyte type control
In short: as §2

[5] = [test solute]i = 5 mM (intracellular)
[6] = [test solute]i = 45 mM (intracellular; 30 mM for some solutes due to solubility)
[7] = [test solute]i = 5 mM (injected)
[8] = [test solute]i = 45 mM (30 mM for some solutes due to solubility)

T1 sequence (Q9N623 whole entry A220S/I356L/K76T/N326D): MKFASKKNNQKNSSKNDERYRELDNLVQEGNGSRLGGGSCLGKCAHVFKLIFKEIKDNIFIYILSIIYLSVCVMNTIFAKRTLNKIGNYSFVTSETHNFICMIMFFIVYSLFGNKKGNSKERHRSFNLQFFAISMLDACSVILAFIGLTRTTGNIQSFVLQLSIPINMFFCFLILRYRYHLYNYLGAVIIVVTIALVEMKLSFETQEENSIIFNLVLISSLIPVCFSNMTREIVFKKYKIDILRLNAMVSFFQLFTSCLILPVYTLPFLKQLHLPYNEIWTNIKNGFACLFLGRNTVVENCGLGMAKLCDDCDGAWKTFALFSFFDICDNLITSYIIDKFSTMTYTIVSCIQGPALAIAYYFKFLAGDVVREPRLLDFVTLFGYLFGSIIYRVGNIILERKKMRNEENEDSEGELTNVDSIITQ
Sequence of PfCRT^3D7 (Q8IBZ9 59-398): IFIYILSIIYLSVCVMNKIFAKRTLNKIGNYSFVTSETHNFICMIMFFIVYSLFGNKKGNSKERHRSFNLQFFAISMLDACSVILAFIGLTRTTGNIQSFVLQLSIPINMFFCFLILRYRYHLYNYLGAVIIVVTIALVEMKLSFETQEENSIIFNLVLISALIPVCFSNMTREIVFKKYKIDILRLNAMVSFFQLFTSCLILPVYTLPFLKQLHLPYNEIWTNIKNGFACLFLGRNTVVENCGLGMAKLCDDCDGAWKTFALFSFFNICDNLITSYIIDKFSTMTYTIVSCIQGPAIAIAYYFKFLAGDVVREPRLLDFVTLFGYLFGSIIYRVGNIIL
T2 sequence (Q9N623 whole entry A220S/I356T/K76T/M74I/N326S/N75E/Q271E/R371I): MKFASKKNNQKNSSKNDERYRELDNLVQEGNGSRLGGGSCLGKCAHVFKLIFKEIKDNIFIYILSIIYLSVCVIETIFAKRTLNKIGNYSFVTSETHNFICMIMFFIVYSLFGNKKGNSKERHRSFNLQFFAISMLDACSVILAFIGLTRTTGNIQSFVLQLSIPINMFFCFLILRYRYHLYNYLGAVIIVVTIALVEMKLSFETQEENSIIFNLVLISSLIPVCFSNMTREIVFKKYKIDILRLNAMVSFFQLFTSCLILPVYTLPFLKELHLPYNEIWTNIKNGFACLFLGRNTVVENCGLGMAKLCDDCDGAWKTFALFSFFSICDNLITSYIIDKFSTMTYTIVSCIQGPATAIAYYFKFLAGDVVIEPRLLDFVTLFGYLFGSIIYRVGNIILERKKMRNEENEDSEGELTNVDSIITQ

Substance	PfCRT-mediated [3H]CQ transport, trans-stimulation (% PfCRTEcu1110 control) (PfCRT^Ecu1110 [1]; [5])	PfCRT-mediated [3H]CQ transport, trans-stimulation (% PfCRTEcu1110 control) (PfCRT^Ecu1110 [1]; [6])	[3H]CQ transport (% PfCRTDd2 control), trans-stimulation, PfCRTEcu1110 (PfCRT^Ecu1110 [1]; [7]) [% PfCRTEcu1110 control]	[3H]CQ transport (% PfCRTDd2 control), trans-stimulation, PfCRTEcu1110 (PfCRT^Ecu1110 [1]; [8]) [% PfCRTEcu1110 control]	PfCRT-mediated [3H]CQ transport, trans-stimulation (% PfCRT3D7 control) (PfCRT^3D7; [5])	PfCRT-mediated [3H]CQ transport, trans-stimulation (% PfCRT3D7 control) (PfCRT^3D7; [6])	PfCRT-mediated [3H]CQ transport, trans-stimulation (% PfCRTDd2 control) (PfCRT^Dd2 [2]; [5])	PfCRT-mediated [3H]CQ transport, trans-stimulation (% PfCRTDd2 control) (PfCRT^Dd2 [2]; [6])	[3H]CQ transport (% PfCRTDd2 control), trans-stimulation, PfCRTDd2 (PfCRT^Dd2 [2]; [7]) [% PfCRTDd2 control]	[3H]CQ transport (% PfCRTDd2 control), trans-stimulation, PfCRTDd2 (PfCRT^Dd2 [2]; [8]) [% PfCRTDd2 control]	PfCRT-mediated [3H]CQ transport, cis-inhibition (% PfCRTEcu1110 control) (PfCRT^Ecu1110 [3]; [test solute] = 0.5 mM)	PfCRT-mediated [3H]CQ transport, cis-inhibition (% PfCRTEcu1110 control) (PfCRT^Ecu1110 [3]; [test solute] = 1 mM)	PfCRT-mediated [3H]CQ transport, cis-inhibition (% PfCRTEcu1110 control) (PfCRT^Ecu1110 [3]; [test solute] = 2 mM)	[3H]CQ transport (% PfCRTEcu1110 control), cis-inhibition, PfCRTEcu1110 (PfCRT^Ecu1110 [3]; [test solute] = 0.5 mM) [% PfCRTEcu1110 control]	[3H]CQ transport (% PfCRTEcu1110 control), cis-inhibition, PfCRTEcu1110 (PfCRT^Ecu1110 [3]; [test solute] = 1 mM) [% PfCRTEcu1110 control]	[3H]CQ transport (% PfCRTEcu1110 control), cis-inhibition, PfCRTEcu1110 (PfCRT^Ecu1110 [3]; [test solute] = 2 mM) [% PfCRTEcu1110 control]	PfCRT-mediated [3H]CQ transport, cis-inhibition (% PfCRTDd2 control) (PfCRT^Dd2 [4]; [test solute] = 0.5 mM)	PfCRT-mediated [3H]CQ transport, cis-inhibition (% PfCRTDd2 control) (PfCRT^Dd2 [4]; [test solute] = 1 mM)	PfCRT-mediated [3H]CQ transport, cis-inhibition (% PfCRTDd2 control) (PfCRT^Dd2 [4]; [test solute] = 2 mM)	[3H]CQ transport (% PfCRT3D7 control), trans-stimulation, PfCRT3D7 (PfCRT^3D7; SEM)
PPVQA [PA-5]	91 ± 5.7	97 ± 4.4	28 ± 1.7	29 ± 1.4	133 ± 4.6	178 ± 5.2	100 ± 4.2	95 ± 5.6	100 ± 4.2	95 ± 5.6	59 ± 2.1	41 ± 1.4	28 ± 0.5	19 ± 0.3	13 ± 0.5	9.0 ± 0.05	39 ± 1.1	31 ± 3.1	19 ± 1.2	
HVDDMPNA [HA-8]	95 ± 2.2	99 ± 3.8			99 ± 3.8	97 ± 4.1	96 ± 3.1	96 ± 2.1			50 ± 2.1	40 ± 2.5	27 ± 1.4				48 ± 3.1	27 ± 0.4	20 ± 1.3	
DTSLKPIS [DS-8]	127 ± 2.8	140 ± 4.1			135 ± 3.7	180 ± 3.4	95 ± 3.1	112 ± 1.2			57 ± 2.1	42 ± 3.1	28 ± 1.3				40 ± 2.2	28 ± 0.6	19 ± 0.3	
DMPNALS [DS-7, host-derived peptide upstream of PL-4]	128 ± 3.1	135 ± 4.2	39 ± 1.6	41 ± 1.9	136 ± 4.1	188 ± 4.6	97 ± 3.6	112 ± 3.5	97 ± 3.6	112 ± 3.5	51 ± 4.1	48 ± 1.4	29 ± 1.5	16 ± 0.2	15 ± 0.4	9.0 ± 0.05	49 ± 1.1	41 ± 1.0	27 ± 0.2	
AEALERMF [AF-8]	96 ± 3.1	98 ± 4.1	29 ± 1.0	30 ± 1.9	97 ± 3.2	97 ± 3.5	97 ± 2.8	96 ± 4.3	97 ± 2.8	96 ± 4.3	52 ± 2.9	41 ± 2.1	32 ± 1.1			10 ± 0.06	61 ± 1.3	52 ± 2.6	19 ± 0.1	0.1 ± 0.03
